19 molecules from patent publication US8853230B2, “Inhibitors of JAK” (Portola Pharmaceuticals, Inc., priority 2009, dated 2014) can be followed below.

Type in all cases: biochemical
The target of test [1] is T1, TYK2 (Homo sapiens, UniProt P29597).
T1 construct: 5 μl of catalytic domain recombinant Kinase enzyme+Tyr peptide substrate (Invitrogen, Calif.); purchased Invitrogen
T1 sequence (P29597 897-1176 limits assumed): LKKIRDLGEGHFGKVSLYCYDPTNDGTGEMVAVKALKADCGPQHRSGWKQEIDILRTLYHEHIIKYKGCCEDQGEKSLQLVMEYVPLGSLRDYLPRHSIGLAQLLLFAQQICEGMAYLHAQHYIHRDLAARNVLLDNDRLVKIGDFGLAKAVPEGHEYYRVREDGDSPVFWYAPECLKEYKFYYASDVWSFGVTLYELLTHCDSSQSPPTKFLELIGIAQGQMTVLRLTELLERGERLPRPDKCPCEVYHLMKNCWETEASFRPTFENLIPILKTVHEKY
As to the kind of experiment: Z'-LYTE kinase assay, TYK2 tyrosine phosphorylation activity. The method, then: (§1) JAK and TYK2 tyrosine phosphorylation activity is measured using the Z′-LYTE™ Technology developed by Invitrogen Corporation (Carlsbad, Calif.). For JAK1, JAK2 and JAK3 the Z′-LYTE™ Kinase Assay Kit-Tyr6 Peptide (part number PV4122) was used. For TYK2 the Z′-LYTE™ Kinase Assay Kit-Tyr6 Peptide (part number PV3192) was used. The Z′-LYTE™ biochemical assay employs a fluorescence resonance energy transfer (FRET) coupled-enzyme format and is based on the differential sensitivity of phosphorylated and non-phosphorylated peptides to proteolitic cleavage. The assay uses a synthetic peptide substrate that is labelled with a donor fluorophore (coumarin) and an acceptor fluorophore (fluorescein) that make up a FRET pair. In the primary reaction (the Kinase Reaction), the kinase transfers the γ-phosphate of ATP to a single tyrosine residue on the substrate, while the presence of a kinase inhibitor in the primary reaction suppresses phosphorylation. In the secondary reaction (the Development Reaction), a site-specific protease (the Development Reagent) is added. The development buffer quenches the Kinase Reaction, while the protease recognizes and cleaves non-phosphorylated Z′-LYTE™ peptide substrate. Cleavage disrupts FRET between the donor and acceptor fluorophores on the non-phosphoryleted substrate, while uncleaved, phosphorylated substrate maintains FRET.
(§2) To test the ability of candidate molecules to inhibit JAK tyrosine phosphorylation activity, molecules are reconstituted in 100% DMSO and serially diluted 1:10 in polypropylene v-bottom microtiter plates. The candidate molecules are then diluted 1:25 into kinase buffer and 2.5 μl transferred into duplicate wells of a 384 well low volume black microtiter assay plate (Corning, USA). The final DMSO concentration in the assay is 1%. The kinase reaction contains 2.5 μl of a candidate molecule, 5 μl of catalytic domain recombinant Kinase enzyme+Tyr peptide substrate (Invitrogen, Calif.) and 2.5 μl ATP (Invitrogen, Calif.). The kinase reaction is allowed to procede for 1 hour at room temperature. The protease reaction is initiated by the addition of 5 μl Development Reagent (Invitrogen, Calif.). After 1 hour incubation at room temperature the fluorescence is measured using a FlexStation plate reader (Molecular Devices, Sunnyvale, Calif.). The reader settings used are as follows: Fluorescence mode, endpoint, top read, excitation 400 nm, emission 445 nm and 520 nm, Auto Cutoff 435 nm and 515 nm, PMT sensitivity high, 6 reads per well. Inhibition of JAK activity is calculated as the percent phosphorylation of substrate in the presence of inhibitor compared to the percent phosphorylation of substrate in the absence of inhibitor. IC50's were derived using Xlfit 4.3 (IDBS, UK), 4 parameter logistic model 205: Y=(A+((B−A)/(1+((C/x)^D)))).

For test [2], the target named is T2, JAK2 (Homo sapiens, UniProt O60674).
T2 construct: 5 μl of catalytic domain recombinant Kinase enzyme+Tyr peptide substrate (Invitrogen, Calif.); purchased Invitrogen
T2 sequence (O60674 849-1124 limits assumed): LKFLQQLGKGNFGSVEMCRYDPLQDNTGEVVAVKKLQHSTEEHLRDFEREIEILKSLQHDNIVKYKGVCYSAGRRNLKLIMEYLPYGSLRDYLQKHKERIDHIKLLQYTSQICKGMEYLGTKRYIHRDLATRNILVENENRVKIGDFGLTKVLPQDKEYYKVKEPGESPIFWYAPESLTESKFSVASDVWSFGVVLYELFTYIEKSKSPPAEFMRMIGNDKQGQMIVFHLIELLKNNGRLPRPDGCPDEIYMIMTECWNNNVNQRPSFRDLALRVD
The test can be described thus: Z'-LYTE kinase assay, JAK2 tyrosine phosphorylation activity. The method, then:
as §1, §2

Test [3] has as its target T3, JAK1 (Homo sapiens, UniProt P23458).
T3 construct: 5 μl of catalytic domain recombinant Kinase enzyme+Tyr peptide substrate (Invitrogen, Calif.); purchased Invitrogen
The test can be described thus: Z'-LYTE kinase assay, JAK1 tyrosine phosphorylation activity. To be noted: read-out: JAK 1 IC50. How it is done: as §1, §2

For test [4], the target named is T4, JAK3 (Homo sapiens, UniProt P52333).
T4 construct: 5 μl of catalytic domain recombinant Kinase enzyme+Tyr peptide substrate (Invitrogen, Calif.); purchased Invitrogen
T4 sequence (P52333 822-1111 limits assumed): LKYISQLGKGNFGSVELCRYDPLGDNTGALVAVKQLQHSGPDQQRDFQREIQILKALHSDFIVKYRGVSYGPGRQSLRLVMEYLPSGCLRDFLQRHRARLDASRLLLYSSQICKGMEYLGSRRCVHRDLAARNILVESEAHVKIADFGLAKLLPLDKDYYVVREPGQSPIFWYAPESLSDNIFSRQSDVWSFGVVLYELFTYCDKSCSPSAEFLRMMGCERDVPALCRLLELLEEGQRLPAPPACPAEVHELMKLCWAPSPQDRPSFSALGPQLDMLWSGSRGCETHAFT
The test can be described thus: Z'-LYTE kinase assay, JAK3 tyrosine phosphorylation activity. The method, then: as §1, §2

T3 sequence (P23458 875-1153 limits assumed): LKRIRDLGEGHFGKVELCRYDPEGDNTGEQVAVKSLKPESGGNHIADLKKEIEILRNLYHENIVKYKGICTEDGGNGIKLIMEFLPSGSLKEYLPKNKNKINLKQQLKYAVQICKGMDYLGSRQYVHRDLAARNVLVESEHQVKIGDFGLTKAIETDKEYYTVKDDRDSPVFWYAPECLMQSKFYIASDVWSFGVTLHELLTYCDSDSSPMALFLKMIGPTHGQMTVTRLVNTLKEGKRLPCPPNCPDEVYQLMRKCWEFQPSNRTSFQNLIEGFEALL

Consider `CC(=O)Nc1cccc(Nc2cc(NCc3ccc(F)cc3)c(C(N)=O)cn2)c1` [Example 332, 6-(3-acetamidophenylamino)-4-(4-fluorobenzylamino)nicotinamide], for which the 50% inhibitory concentration (IC50) in test [1] is above 1000 nM; in test [2], 100 to 1000 nM; in test [3], above 1000 nM; in test [4], 100 to 1000 nM.

Regarding `C[C@@H](Nc1nc(Nc2cccc(NC(=O)N3CCN(C)CC3)c2)ncc1C(N)=O)c1ccccc1` [Example 254, (R)-2-(3-(4-methylpiperazine-1-carboxamido)phenylamino)-4-(1-phenylethylamino)pyrimidine-5-carboxamide], the half-inhibitory concentration (IC50) lay within 10 to 100 nM in test [1], 1 to 10 nM in test [2], 10 to 100 nM in test [3] and 1 to 10 nM in test [4].

Turning to `NC(=O)c1cnc(Nc2cccc(NC(=O)N3CCCC3)c2)nc1NCC1CC1` [Example 123, 4-(cyclopropylmethylamino)-2-(3-(pyrrolidine-1-carboxamido)phenylamino)pyrimidine-5-carboxamide], the IC50 is 1 to 10 nM in test [1], 10 to 100 nM in test [2], 10 to 100 nM in test [3] and 1 to 10 nM in test [4].

Take `CC(=O)Nc1cccc(Nc2ncc(C(N)=O)c(N[C@@H](C)C(C)C)n2)c1` [Example 247, (S)-2-(3-acetamidophenylamino)-4-(3-methylbutan-2-ylamino)pyrimidine-5-carboxamide]: the concentration for half-maximal inhibition (IC50) in test [1], in test [2], in test [3] and in test [4] was 10 to 100 nM throughout.

`CC(C)[C@@H](C)Nc1nc(Nc2ccc(Cl)c(NC(=O)N3CCCC3)c2)ncc1C(N)=O` [Example 253, (R)-2-(4-chloro-3-(pyrrolidine-1-carboxamido)phenylamino)-4-(3-methylbutan-2-ylamino)pyrimidine-5-carboxamide]: the IC50 was 1 to 10 nM in test [1], 10 to 100 nM in test [2], 10 to 100 nM in test [3] and 1 to 10 nM in test [4].

Consider `CN(C(=O)N1CCCC1)c1cccc(Nc2ncc(C(N)=O)c(NCc3ccccc3)n2)c1` [Example 141, 4-(benzylamino)-2-(3-(N-methylpyrrolidine-1-carboxamido)phenylamino)pyrimidine-5-carboxamide], for which the IC50 in test [1] is 100 to 1000 nM; in test [2] it was 10 to 100 nM; in test [3], 100 to 1000 nM; in test [4], 1 to 10 nM.

`CC(=O)Nc1cc(Cl)cc(Nc2ncc(C(N)=O)c(NCc3cccc(F)c3)n2)c1` [Example 261, 2-(3-acetamido-5-chlorophenylamino)-4-(3-fluorobenzylamino)pyrimidine-5-carboxamide]: the IC50 in test [1] was 10 to 100 nM; in test [2] it was 10 to 100 nM; in test [3] it was above 1000 nM; in test [4], 10 to 100 nM.

Regarding `CC(=O)Nc1cccc(Nc2cc(NC3CCCC3)c(C(N)=O)cn2)c1` [Example 330, 6-(3-acetamidophenylamino)-4-(cyclopentylamino)nicotinamide], the IC50 in test [1] was in the range of 10 to 100 nM; in test [2] it was 100 to 1000 nM; in test [3], 100 to 1000 nM; in test [4], 100 to 1000 nM.

Consider `CC(=O)Nc1cccc(Nc2ncc(C(N)=O)c(NCC3CCCN(S(C)(=O)=O)C3)n2)c1` (stereo not shown) [Example 120, 2-(3-acetamidophenylamino)-4-((1-(methylsulfonyl)piperidin-3-yl)methylamino)pyrimidine-5-carboxamide], for which the half-inhibitory concentration (IC50) in test [1] fell in the range of 10 to 100 nM; in test [2], 10 to 100 nM; in test [3] it was 10 to 100 nM; in test [4], 1 to 10 nM.

Regarding `CC(=O)Nc1cccc(Nc2cc(N[C@H]3CCc4ccccc43)c(C(N)=O)cn2)c1` [Example 335, (S)-6-(3-acetamidophenylamino)-4-(2,3-dihydro-1H-inden-1-ylamino)nicotinamide], the IC50 in test [1] was 10 to 100 nM; in test [2], above 1000 nM; in test [3], 100 to 1000 nM; in test [4] it was 10 to 100 nM.

Turning to `COC[C@@H]1CCCN1C(=O)Nc1cccc(Nc2ncc(C(N)=O)c(N[C@H](C)c3ccccc3)n2)c1` [Example 138, 2-(3-((S)-2-(methoxymethyl)pyrrolidine-1-carboxamido)phenylamino)-4-((R)-1-phenylethylamino)pyrimidine-5-carboxamide], the IC50 in test [1] lay in the range of 10 to 100 nM; in test [2], 10 to 100 nM; in test [3], 100 to 1000 nM; in test [4], 1 to 10 nM.

For `CC(=O)Nc1cccc(Nc2ncc(C(N)=O)c(NCc3ccccn3)n2)c1` [Example 187, 2-(3-acetamidophenylamino)-4-(pyridin-2-ylmethylamino)pyrimidine-5-carboxamide], the IC50 in test [1] was in the range of 10 to 100 nM; in test [2], 10 to 100 nM; in test [3] it was 100 to 1000 nM; in test [4] it was 10 to 100 nM.

In the case of `CC(=O)Nc1cccc(Nc2ncc(C(N)=O)c(Nc3ccc(S(C)(=O)=O)cc3)n2)c1` [Example 197], the IC50 is 10 to 100 nM in test [1], 10 to 100 nM in test [2], above 1000 nM in test [3] and 10 to 100 nM in test [4].

With `CC[C@H](C)Nc1nc(Nc2ccc(Cl)c(NC(=O)N3CCCC3)c2)ncc1C(N)=O` [Example 176, (S)-4-(sec-butylamino)-2-(4-chloro-3-(pyrrolidine-1-carboxamido)phenylamino)pyrimidine-5-carboxamide], the half-maximal inhibitory concentration (IC50) in test [1] fell in the range of 10 to 100 nM; in test [2] it was 100 to 1000 nM; in test [3], 10 to 100 nM; in test [4], 10 to 100 nM.

Regarding `CC(=O)Nc1cccc(Nc2ncc(C(N)=O)c(NCc3cccc(F)c3F)n2)c1` [Example 95, 2-(3-acetamidophenylamino)-4-(2,3-difluorobenzylamino)pyrimidine-5-carboxamide], the half-maximal inhibitory concentration (IC50) is 10 to 100 nM in test [1], 10 to 100 nM in test [2], 10 to 100 nM in test [3] and 1 to 10 nM in test [4].

`CN(C(=O)N1CCCC1)c1cc(Nc2ncc(C(N)=O)c(NCc3cccc(F)c3)n2)ccc1Cl` [Example 242, 2-(4-chloro-3-(N-methylpyrrolidine-1-carboxamido)phenylamino)-4-(3-fluorobenzylamino)pyrimidine-5-carboxamide]: the half-maximal inhibitory concentration (IC50) in test [1] is above 1000 nM; in test [2], above 1000 nM; in test [3], above 1000 nM; in test [4], 100 to 1000 nM.

On to `COc1ccc(Nc2ncc(C(N)=O)c(NCc3ccccc3)n2)cc1N(C)C(=O)N1CCCC1` [Example 239, 4-(benzylamino)-2-(4-methoxy-3-(N-methylpyrrolidine-1-carboxamido)phenylamino)pyrimidine-5-carboxamide], for which the IC50 was in the range of 10 to 100 nM in test [1], 10 to 100 nM in test [2], 100 to 1000 nM in test [3] and 10 to 100 nM in test [4].

For the molecule `CN(C(=O)N1CCCC1)c1cccc(Nc2ncc(C(N)=O)c(NCC3CC3)n2)c1` [Example 127, 4-(cyclopropylmethylamino)-2-(3-(N-methylpyrrolidine-1-carboxamido)phenylamino)pyrimidine-5-carboxamide], the concentration for half-maximal inhibition (IC50) in test [1] lay in the range of 100 to 1000 nM; in test [2] it was 10 to 100 nM; in test [3], 100 to 1000 nM; in test [4], 10 to 100 nM.

As for `C[C@@H](Nc1nc(Nc2cccc(NC(=O)N3CCOCC3)c2)ncc1C(N)=O)c1ccccc1` [Example 255, (R)—N-(3-(5-carbamoyl-4-(1-phenylethylamino)pyrimidin-2-ylamino)phenyl)morpholine-4-carboxamide], the concentration for half-maximal inhibition (IC50) in test [1] is 10 to 100 nM; in test [2] it was 1 to 10 nM; in test [3], 10 to 100 nM; in test [4], below 1 nM.
